US11414416B1, “Compounds and uses thereof” (Foghorn Therapeutics Inc., priority 2019, dated 2022)

Biological target: BRD9 bromodomain (Homo sapiens (Human), UniProt Q9H8M2)
Assay: BRD9 bromodomain TR-FRET competition binding assay
Conditions: Table 4; competition with biotinylated ligand, 3 nM Flag-BRD9, 90 minutes
Method: Procedure: His-Flag-BRD9 (P133-K239; Swiss Prot Q9H8M2; SEQ ID NO:1 mgsshhhhhhenlyfq/gdykddddkgslevlfqg/[…] […]) was cloned, expressed, purified, and then treated with TEV protease. Cleaved His tag was removed by purification. The binding of a biotinylated small molecule ligand of BRD9 was assessed via the LANCE® TR-FRET platform (PerkinElmer), and the compounds were assayed for inhibitory activity against this interaction.
A mixture of biotinylated-ligand and SureLight™ Allophycocyanin-Streptavidin (APC-SA, PerkinElmer AD0201) in 50 mM HEPES (pH 7.4), 50 mM NaCl, 1 mM TCEP (pH 7), 0.01% (v/v) Tween-20, 0.01% (w/v) bovine serum albumin was added to a white 384-well PerkinElmer Proxiplate Plus plate. DMSO or 3-fold serially diluted compounds were then added to the Proxiplate followed by addition of Flag-BRD9. After a 10-minute incubation at room temperature, Eu-W1024 anti-FLAG (PerkinElmer, AD0273) was added. The final reaction mixture that contained 3.75 nM biotinylated ligand, 3 nM Flag-BRD9, 7.5 nM SureLight™ Allophycocyanin-Streptavidin, and 0.2 nM Eu-W1024 anti-FLAG was incubated at room temperature for 90 minutes.
Results: The plates were then read on a PerkinElmer Envision plate reader to determine the ratio of emission at 665 nm over 615 nm. […]

BRD9 bromodomain, sequence (Q9H8M2 133-239): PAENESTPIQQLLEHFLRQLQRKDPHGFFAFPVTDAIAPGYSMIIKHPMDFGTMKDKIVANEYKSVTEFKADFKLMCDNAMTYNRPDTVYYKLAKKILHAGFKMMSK

IC50 | Compound
< 10 nM | COc1cc(-c2cn(C)c(=O)c3cnccc23)cc(OC)c1CN(C)CC1CC12CCN(C(=O)CCOCCOc1cccc3c1C(=O)N(C1CCC(=O)NC1=O)C3=O)CC2 (stereo not drawn) [Compound D163]
< 10 nM | COc1cc(-c2cn(C)c(=O)c3cnccc23)cc(OC)c1CN1CC[C@H]1CN(C)Cc1cccc2c1C(=O)N(C1CCC(=O)NC1=O)C2=O (stereo partly drawn) [Compound D27, 4-(((((S)-1-(2,6-dimethoxy-4-(2-methyl-1-oxo-1,2-dihydro-2,7-naphthyridin-4-yl)benzyl)azetidin-2-yl)methyl)(methyl)amino)methyl)-2-(2,6-dioxopiperidin-3-yl)isoindoline-1,3-dione]
< 10 nM | COc1cc(-c2cn(C)c(=O)c3cnccc23)cc(OC)c1CN1CC2CN(C(=O)CCOCCOc3cccc4c3C(=O)N(C3CCC(=O)NC3=O)C4=O)CCC21 (stereo not drawn) [Compound D92]

Biological target: Nanoluciferase-BRD9 fusion protein (Homo sapiens (Human), UniProt Q9H8M2)
Assay: SYO1 BRD9 NanoLuc degradation assay
Type: cell-based
Conditions: Table 5A; SYO-1 cells expressing 3×FLAG-NLuc-BRD9, 6 hours; read-out: SYO1 BRD9-NanoLuc degradation IC50
Procedure, shortened: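 Degradation was read as loss of nanoluciferase signal (Nano-Glo) after 6 h compound exposure in a stable SYO-1 line carrying 3×FLAG-NLuc-BRD9 (8000 cells/well). Normalised between DMSO (high) and a 1 μM known BRD9 degrader (low).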

Nanoluciferase-BRD9 fusion protein, sequence (Q9H8M2 whole entry, the tested form may be a part): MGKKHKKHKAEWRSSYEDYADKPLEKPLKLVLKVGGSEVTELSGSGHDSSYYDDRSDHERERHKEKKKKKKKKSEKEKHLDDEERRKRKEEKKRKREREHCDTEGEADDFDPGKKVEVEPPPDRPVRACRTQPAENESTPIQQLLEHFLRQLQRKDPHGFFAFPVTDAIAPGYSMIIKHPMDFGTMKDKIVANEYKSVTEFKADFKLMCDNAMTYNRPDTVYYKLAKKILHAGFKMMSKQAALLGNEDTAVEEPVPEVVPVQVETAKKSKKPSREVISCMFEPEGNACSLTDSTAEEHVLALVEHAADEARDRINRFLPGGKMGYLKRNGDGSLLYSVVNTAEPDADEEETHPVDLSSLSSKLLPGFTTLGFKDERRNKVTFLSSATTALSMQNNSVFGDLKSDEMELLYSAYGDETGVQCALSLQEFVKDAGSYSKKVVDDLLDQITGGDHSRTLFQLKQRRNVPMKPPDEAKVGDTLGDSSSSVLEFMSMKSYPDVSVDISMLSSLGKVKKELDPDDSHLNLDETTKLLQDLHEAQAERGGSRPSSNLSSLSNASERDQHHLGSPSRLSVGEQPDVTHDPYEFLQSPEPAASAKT

DC50 | Compound
10 to 100 nM | COc1cc(-c2cn(C)c(=O)c3cnccc23)cc(OC)c1CN(C)CC1CC12CCN(C(=O)CCOCCOc1cccc3c1C(=O)N(C1CCC(=O)NC1=O)C3=O)CC2 (stereo not drawn) [Compound D163]
10 to 100 nM | COc1cc(-c2cn(C)c(=O)c3cnccc23)cc(OC)c1CN1CC[C@H]1CN(C)Cc1cccc2c1C(=O)N(C1CCC(=O)NC1=O)C2=O (stereo partly drawn) [Compound D27, 4-(((((S)-1-(2,6-dimethoxy-4-(2-methyl-1-oxo-1,2-dihydro-2,7-naphthyridin-4-yl)benzyl)azetidin-2-yl)methyl)(methyl)amino)methyl)-2-(2,6-dioxopiperidin-3-yl)isoindoline-1,3-dione]
< 10 nM | COc1cc(-c2cn(C)c(=O)c3cnccc23)cc(OC)c1CN1CC[C@H]1C(=O)NCCCCCCCCNc1cccc2c1C(=O)N([C@@H]1CCC(=O)NC1=O)C2=O (stereo in doubt) [Compound D18, (2S)-1-((2,6-dimethoxy-4-(2-methyl-1-oxo-2,7-naphthyridin-4-yl)phenyl)methy)-N-(8-((2-((R)-2,6-dioxopiperidin-3-yl)-1,3-dioxoisoindol-4-yl)amino)octyl) azetidine-2-carboxamide]

Compound | DC50
COc1cc(-c2cn(C)c(=O)c3cnccc23)cc(OC)c1CN1CCC2(CC1)CN(CCCCOc1ccc3c(c1)C(=O)N(C1CCC(=O)NC1=O)C3=O)CCO2 (stereo not drawn) [Compound D50, 5-(4-(9-(2,6-dimethoxy-4-(2-methyl-1-oxo-1,2-dihydro-2,7-naphthyridin-4-yl)benzyl)-1-oxa-4,9-diazaspiro[5.5]undecan-4-yl)butoxy)-2-(2,6-dioxopiperidin-3-yl)isoindoline-1,3-dione] | < 10 nM

Same assay, conditions: Table 5B; SYO-1 cells expressing 3×FLAG-NLuc-BRD9, 6 hours; read-out: SYO1 BRD9-NanoLuc degradation IC50

DC50 | Compound
< 10 nM | COc1cc(-c2cn(C)c(=O)c3ccnnc23)cc(OC)c1CN1CCC(CN2CCC3(CC2)CC(Oc2ccc4c(c2)CN(C2CCC(=O)NC2=O)C4=O)C3)CC1 (stereo not drawn) [Compound D366]
< 10 nM | COc1cc(-c2cc(C)c(=O)n(C)c2)cc(OC)c1CN1CCC2(CCN(c3ccc4c(c3)C(=O)N(C3CCC(=O)NC3=O)C4=O)C2)C1 (stereo not drawn) [Compound D336]
< 10 nM | COc1cc(-c2cn(C)c(=O)c3cnccc23)cc(OC)c1CN1CCC(c2cc(COc3ccc4c(c3)C(=O)N(C3CCC(=O)NC3=O)C4=O)on2)CC1 (stereo not drawn) [Compound D322]
< 10 nM | COc1cc(-c2cn(C)c(=O)c3cnccc23)cc(OC)c1CN1CCN(C(=O)CC#Cc2ccc3c(c2)C(=O)N(C2CCC(=O)NC2=O)C3=O)CC1 (stereo not drawn) [Compound D316]
< 10 nM | COc1cc(-c2cn(C)c(=O)c3cnncc23)cc(OC)c1CN1CCC(CN2CCC3(CC2)CC(Oc2ccc4c(c2)C(=O)N(C2CCC(=O)NC2=O)C4)C3)CC1 (stereo not drawn) [Compound D368]
10 to 100 nM | COc1cc(-c2cn(C)c(=O)c3cnccc23)cc(OC)c1CN(C)CCOCCn1cc(COCCOc2ccc3c(c2)C(=O)N(C2CCC(=O)NC2=O)C3=O)nn1 (stereo not drawn) [Compound D293]
100 to 1000 nM | CNC(=O)NCc1cc(-c2cc(OC)c(CN3CC(CN4CCC5(CC4)CN(c4ccc6c(c4)C(=O)N(C4CCC(=O)NC4=O)C6=O)C5)C3)c(OC)c2)cn(C)c1=O (stereo not drawn) [Compound D350]
< 10 nM | COc1cc(-c2cn(C)c(=O)c3cn(C)nc23)cc(OC)c1CN1CC(CN2CCC3(CC2)CN(c2ccc4c(c2)CN(C2CCC(=O)NC2=O)C4=O)C3)C1 (stereo not drawn) [Compound D370]
10 to 100 nM | COc1cc(-c2cn(C)c(=O)c3cnccc23)cc(OC)c1CN1CCC2(C1)CN(C(=O)CC#Cc1ccc3c(c1)C(=O)N(C1CCC(=O)NC1=O)C3=O)C2 (stereo not drawn) [Compound D314]
< 10 nM | COc1cc(-c2cn(C)c(=O)c3cnccc23)cc(OC)c1CN1CCC(n2ccc(COc3ccc4c(c3)C(=O)N(C3CCC(=O)NC3=O)C4=O)n2)CC1 (stereo not drawn) [Compound D323]

Second part, the molecule before the results:

Compound | DC50
COc1cc(-c2cn(C)c(=O)c3cnccc23)cc(OC)c1CN1CC(CC(=O)NC2CC3(C2)CC(Oc2ccc4c(c2)C(=O)N(C2CCC(=O)NC2=O)C4=O)C3)C1 (stereo not drawn) [Compound D182] | 10 to 100 nM
COc1cc(-c2cn(C)c(=O)c3cnccc23)cc(OC)c1CN(C)C(=O)CCCCNC1CC2(CCN(c3ccc4c(c3)C(=O)N(C3CCC(=O)NC3=O)C4=O)CC2)C1 (stereo not drawn) [Compound D256] | < 10 nM
COc1cc(-c2cn(C)c(=O)c3cnccc23)cc(OC)c1CN(C)C(=O)CCCCN1CCC2(C1)CN(c1ccc3c(c1)C(=O)N(C1CCC(=O)NC1=O)C3=O)C2 (stereo not drawn) [Compound D203] | < 10 nM
COc1cc(-c2cn(C)c(=O)c3cnccc23)cc(OC)c1CN1CC2(C1)CN(C(=O)CCC#Cc1ccc3c(c1)C(=O)N(C1CCC(=O)NC1=O)C3=O)C2 (stereo not drawn) [Compound D200] | 10 to 100 nM
COc1cc(-c2cn(C)c(=O)c3cnccc23)cc(OC)c1CN1CC(CC(=O)N[C@@H]2C[C@@]23CCN(c2ccc4c(c2)C(=O)N(C2CCC(=O)NC2=O)C4=O)C3)C1 (stereo partly drawn) [Compound D232] | 10 to 100 nM
COc1cc(-c2cn(C)c(=O)c3cnccc23)cc(OC)c1CN(C)C(=O)CCCCN1CC2(CCN(c3ccc4c(c3)C(=O)N(C3CCC(=O)NC3=O)C4=O)C2)C1 (stereo not drawn) [Compound D187] | < 10 nM
COc1cc(-c2cn(C)c(=O)c3cnccc23)cc(OC)c1CN(C)CCn1cc(CN2CC(Oc3ccc4c(c3)C(=O)N(C3CCC(=O)NC3=O)C4=O)C2)nn1 (stereo not drawn) [Compound D276] | 10 to 100 nM
COc1cc(-c2cn(C)c(=O)c3cnccc23)cc(OC)c1CN(C)CCCCN1CCC2C1CN2c1ccc2c(c1)C(=O)N(C1CCC(=O)NC1=O)C2=O (stereo not drawn) [Compound D227] | < 10 nM
COc1cc(-c2cn(C)c(=O)c3cnccc23)cc(OC)c1CN1CC(CC(=O)N2CCC3(CC2)CN(c2ccc4c(c2)C(=O)N(C2CCC(=O)NC2=O)C4=O)C3)C1 (stereo not drawn) [Compound D180] | < 10 nM
COc1cc(-c2cn(C)c(=O)c3cnccc23)cc(OC)c1CN1CCC2(C1)CN(C(=O)C#Cc1ccc3c(c1)C(=O)N(C1CCC(=O)NC1=O)C3=O)C2 (stereo not drawn) [Compound D241] | < 10 nM
COc1cc(-c2cn(C)c(=O)c3cnccc23)cc(OC)c1CN1CC(CC(=O)N2CCC3(C2)CN(c2ccc4c(c2)C(=O)N(C2CCC(=O)NC2=O)C4=O)C3)C1 (stereo not drawn) [Compound D193] | 100 to 1000 nM
COc1cc(-c2cn(C)c(=O)c3cnccc23)cc(OC)c1CN1CCC2(CC1)CCN(C(=O)C#Cc1ccc3c(c1)C(=O)N(C1CCC(=O)NC1=O)C3=O)C2 (stereo not drawn) [Compound D240] | < 10 nM
COc1cc(-c2cn(C)c(=O)c3cnccc23)cc(OC)c1CN1CCC2C(C1)CN2CC#Cc1ccc2c(c1)C(=O)N(C1CCC(=O)NC1=O)C2=O (stereo not drawn) [Compound D236] | < 10 nM
COc1cc(-c2cn(C)c(=O)c3cnccc23)cc(OC)c1CN(C)CCn1cc(COC2CN(c3ccc4c(c3)C(=O)N(C3CCC(=O)NC3=O)C4=O)C2)nn1 (stereo not drawn) [Compound D277] | < 10 nM
COc1cc(-c2cn(C)c(=O)c3cnccc23)cc(OC)c1CN1CCN(CC#Cc2ccc3c(c2)C(=O)N(C2CCC(=O)NC2=O)C3=O)CC1 (stereo not drawn) [Compound D237] | < 10 nM

Same assay, conditions: Table 5C; SYO-1 cells expressing 3×FLAG-NLuc-BRD9, 6 hours; read-out: SYO1 BRD9-NanoLuc degradation IC50

DC50 | Compound
< 10 nM | COc1cc(-c2cn(C)c(=O)c3cn(C)nc23)cc(OC)c1CN1CCC(CN2CCC3(CC2)CN(c2ccc4c(c2)C(=O)N(C2CCC(=O)NC2=O)C4)C3)CC1 (stereo not drawn) [Compound D405]
> 1000 nM | COc1cc(-c2c(C)n(C)c(=O)c3[nH]c(C)cc23)cc(OC)c1CN1CCC2(CC1)CN(c1ccc3c(c1)C(=O)N(C1CCC(=O)NC1=O)C3=O)C2 (stereo not drawn) [Compound D446]
< 10 nM | [2H]C([2H])([2H])n1cc(-c2cc(OC)c(CN3[C@H](C)CN(c4ccc5c(c4)C(=O)N(C4CCC(=O)NC4=O)C5)C[C@H]3C)c(OC)c2)c2nn(C)cc2c1=O (stereo partly drawn) [Compound D424]
> 1000 nM | COc1cccc(OC)c1CN1CCC2(CC1)CN(c1ccc3c(c1)C(=O)N(C1CCC(=O)NC1=O)C3)C2 (stereo not drawn) [DD12]
> 1000 nM | COc1cc(-c2cn(C)c(=O)c3cnccc23)cc(OC)c1CN1CCC(c2cc(=O)n(C3CCC(=O)NC3=O)c(C)n2)CC1 (stereo not drawn) [Compound D394]
> 1000 nM | COc1cccc(OC)c1CN1CCN(c2ccc3c(c2)C(=O)N(C2CCC(=O)NC2=O)C3)CC1 (stereo not drawn) [DD14]
> 1000 nM | COc1cc(-c2cn(C)c(=O)c3cnccc23)cc(OC)c1CN1CCC2(CC1)CN(c1ccc3c(c1)C(=O)N(C1CCCNC1=O)C3)C2 (stereo not drawn) [Compound D389]
10 to 100 nM | COc1cc(-c2cn(C)c(=O)c3cnccc23)cc(OC)c1CN1CCC2(CC1)CN(c1cccc(C(=O)NC3CCC(=O)NC3=O)c1)C2 (stereo not drawn) [Compound D392]
> 1000 nM | COc1cc(-c2cc(C)cc3ccccc23)cc(OC)c1CN1CCC(CN2CCC3(CC2)CC(Oc2ccc4c(c2)C(=O)N(C2CCC(=O)NC2=O)C4=O)C3)CC1 (stereo not drawn) [DD11]
< 10 nM | CCc1cc(-c2cn(C)c(=O)c3cnccc23)cc(OC)c1CN1CC(Oc2ccc3c(c2)C(=O)N(C2CCC(=O)NC2=O)C3=O)C1C (stereo not drawn) [Compound D386]
